“Also recorded” adds a separate entry of the source. Where two headings read alike, the source gives them in different places.
Legend:
[1] = in words, prior art; cited from earlier work
[2] = in words; cited from earlier work
Water solubility = settings: in words

Row | SMILES | water solubility [1] | metabolized in vivo [2] | water solubility (Water solubility)
1 | CC(=O)CC(=O)OCC(O)CO (stereo not drawn) [monoacetoacetin, monoacetoacetylglycerol] | water soluble | metabolized in vivo | 
2 | CC(=O)CC(=O)OCC(COC(=O)CC(C)=O)OC(=O)CC(C)=O [trisacetoacetyl glycerol, trisacetoacetylglycerol] |  |  | rendered water soluble when in the presence of a glycerol bisacetoacetate; also recorded: insoluble by itself in water; also recorded: surprisingly solubilized in water when in the presence of 1,2- and 1,3-bisacetoacetyl glycerol

— US5420335A, “Parenteral nutrients based on watersoluble glycerol bisacetoacetates” (priority 1993, dated 1995)
